This data set can be described thus: Visual assessment of discoloration on exposure to light. The note with it: benzotriazole up to 5 g/g of silver ions, hydroxylamine hydrochloride up to 3 g/g of silver ions, without pinacryptol yellow.

Molecules are shown by their SMILES.

As to `c1ccc2[nH]nnc2c1` [benzotriazole], the “suppression of discoloration of formulation and textile by stabilizer” value was “not capable, in the concentration used, of permanently suppressing either the discoloration of the formulation itself or the discoloration of the textile”.

For the molecule `Cl.NO` [hydroxylamine hydrochloride], the “suppression of discoloration of formulation and textile by stabilizer” value is recorded as “not capable, in the concentration used, of permanently suppressing either the discoloration of the formulation itself or the discoloration of the textile”.
